{"source": "patent US20230265068A1", "about": "“TRANSIENT RECEPTOR POTENTIAL CANONICAL 3 INHIBITORS AND METHODS OF USE THEREOF” (University of Tennessee Research Foundation, priority 2020, published 2023)", "key": {"hippocampal neurons": {"test_system": "hippocampal neurons", "test": "toxicity of compound alone in hippocampal neuronal culture", "type": "cell-based, rat", "details": "compound alone at different concentrations", "procedure": "To explore the potential biological effects of compound 22 in a TRPC3 related disease model, its neuroprotective ability in primary cultured neurons (14 DIV prepared from E17 rats as described) was evaluated. The effects on neuron dendritic morphology were measured by imaging. Mature hippocampal neurons (DIV=14) were treated with CHO control medium, or naturally secreted Aβ-containing conditioned medium (7PA2), or in combination with compound 22 or Pyr3 at different concentrations, for 16 hours, followed by immunocytochemistry using an antibody against MAP2 and DAPI (data not shown). […] Hippocampal neurons (DIV=14) were treated with compound 22 or Pyr3 alone at different concentrations, followed by immunocytochemistry staining with MAP2 and DAPI (data not shown)."}, "rTRPV1": {"biological_target": "T1, rTRPV1 (Rattus norvegicus, UniProt O35433)", "T1 construct": "expressed in transfected cells; host or cells: HEK293, transient transfection, pMO vector", "T1 sequence (O35433 whole entry)": "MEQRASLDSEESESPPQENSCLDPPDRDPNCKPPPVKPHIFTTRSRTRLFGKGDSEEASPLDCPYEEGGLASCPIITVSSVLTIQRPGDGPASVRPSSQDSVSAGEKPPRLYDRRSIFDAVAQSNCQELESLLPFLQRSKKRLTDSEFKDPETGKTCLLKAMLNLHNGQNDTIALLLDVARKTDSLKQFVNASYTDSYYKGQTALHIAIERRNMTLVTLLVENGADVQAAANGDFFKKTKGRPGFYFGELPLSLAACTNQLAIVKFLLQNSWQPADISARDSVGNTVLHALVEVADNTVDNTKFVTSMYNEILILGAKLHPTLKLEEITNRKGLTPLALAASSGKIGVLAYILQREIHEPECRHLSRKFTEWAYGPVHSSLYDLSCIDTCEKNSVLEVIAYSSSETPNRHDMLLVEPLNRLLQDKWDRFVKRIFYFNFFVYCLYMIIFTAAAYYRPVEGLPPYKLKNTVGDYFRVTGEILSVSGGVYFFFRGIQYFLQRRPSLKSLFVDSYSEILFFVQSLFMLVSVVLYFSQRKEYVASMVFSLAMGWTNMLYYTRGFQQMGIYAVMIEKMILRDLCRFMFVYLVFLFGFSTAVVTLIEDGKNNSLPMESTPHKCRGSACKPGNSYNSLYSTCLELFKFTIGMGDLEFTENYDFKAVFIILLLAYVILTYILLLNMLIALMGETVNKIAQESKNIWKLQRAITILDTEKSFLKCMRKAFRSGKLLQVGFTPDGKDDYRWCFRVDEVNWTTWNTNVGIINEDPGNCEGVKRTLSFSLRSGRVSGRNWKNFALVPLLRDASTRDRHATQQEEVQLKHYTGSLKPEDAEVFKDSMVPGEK", "test": "whole-cell patch clamp selectivity, HEK 293 cells overexpressing rTRPV1", "type": "cell-based", "details": "HEK293, with agonist, solutions without Ca2+, read-out: % of the current of rTRPV1 inhibited", "procedure": "(§1) Human embryonic kidney 293 (HEK293; catalog number CRL-1573) cells were cultured in Dulbecco's modified Eagle's medium (Invitrogen) supplemented with 10% fetal bovine serum and 1% penicillin-streptomycin at 37° C. and 5% CO2. Constructs cloned in pMO (a pcDNA3-modified vector) were co-transfected with GFP-pMO, using Lipofectamine 2000 (Invitrogen) according to the manufacturer's instructions. Macroscopic currents in the whole-cell patch clamp configuration were recorded 18-24 h post-transfection. The extracellular solution contained 140 mM NaCl, 6 mM KCl, 2 mM MgCl2, 10 mM HEPES, and 10 mM glucose (pH 7.4). Pipettes were made of borosilicate glass (outer diameter, 1.5 mm; inner diameter, 1.10 mm; Sutter Instruments) and fire-polished with a resistance between 2.8 and 4.0 megaohms when filled with an intracellular solution that contained 140 mM CsCl, 5 mM EGTA, and 10 mM HEPES, pH 7.2. Currents were recorded with a Multiclamp 700B amplifier (Molecular Devices) using a 1-s ramp from −100 to 100 mV. […] Data were acquired with a sampling rate of 20 kHz, low-pass filtered (10 kHz), and analyzed offline using Clampfit v10.4.2.0 (Molecular Devices). […]"}, "hTRPA1": {"biological_target": "T2, hTRPA1 (Homo sapiens, UniProt O75762)", "T2 construct": "expressed in transfected cells; host or cells: HEK293, transient transfection, pMO vector", "T2 sequence (O75762 whole entry)": "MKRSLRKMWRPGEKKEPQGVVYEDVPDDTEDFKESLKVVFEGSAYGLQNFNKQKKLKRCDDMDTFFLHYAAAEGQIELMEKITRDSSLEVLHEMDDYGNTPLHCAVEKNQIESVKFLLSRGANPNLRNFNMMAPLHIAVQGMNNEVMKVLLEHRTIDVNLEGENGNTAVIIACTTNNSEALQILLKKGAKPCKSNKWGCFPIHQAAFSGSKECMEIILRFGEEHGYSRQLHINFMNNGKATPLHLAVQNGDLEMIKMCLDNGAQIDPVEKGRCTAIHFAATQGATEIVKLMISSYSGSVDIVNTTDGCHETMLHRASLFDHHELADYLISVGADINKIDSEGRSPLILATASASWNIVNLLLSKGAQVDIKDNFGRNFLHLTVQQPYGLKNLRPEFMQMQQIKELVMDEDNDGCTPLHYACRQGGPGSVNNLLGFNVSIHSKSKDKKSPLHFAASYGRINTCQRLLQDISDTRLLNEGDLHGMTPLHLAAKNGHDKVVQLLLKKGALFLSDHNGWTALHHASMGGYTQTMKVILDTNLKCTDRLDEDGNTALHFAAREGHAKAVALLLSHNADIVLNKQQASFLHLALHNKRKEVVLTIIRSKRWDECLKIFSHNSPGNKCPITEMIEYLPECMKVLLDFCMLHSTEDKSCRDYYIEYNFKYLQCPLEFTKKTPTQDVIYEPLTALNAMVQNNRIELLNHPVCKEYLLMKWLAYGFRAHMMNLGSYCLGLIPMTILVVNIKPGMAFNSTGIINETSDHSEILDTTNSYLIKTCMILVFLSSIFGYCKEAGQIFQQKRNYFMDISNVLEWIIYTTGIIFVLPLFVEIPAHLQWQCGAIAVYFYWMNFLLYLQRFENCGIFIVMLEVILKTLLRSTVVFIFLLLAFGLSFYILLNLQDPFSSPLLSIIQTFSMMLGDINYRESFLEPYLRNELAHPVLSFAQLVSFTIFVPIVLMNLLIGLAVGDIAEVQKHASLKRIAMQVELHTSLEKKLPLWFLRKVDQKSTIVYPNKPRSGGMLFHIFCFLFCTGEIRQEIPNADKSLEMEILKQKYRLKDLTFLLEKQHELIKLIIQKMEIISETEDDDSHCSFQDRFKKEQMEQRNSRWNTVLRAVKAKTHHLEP", "test": "whole-cell patch clamp selectivity, HEK 293 cells overexpressing hTRPA1", "type": "cell-based", "details": "HEK293, with agonist, solutions without Ca2+, read-out: % of the current of hTRPA1 inhibited", "procedure": "as §1"}, "mmTRPC6": {"biological_target": "T3, mmTRPC6 (Mus musculus, UniProt Q61143)", "T3 construct": "expressed in transfected cells; host or cells: HEK293, transient transfection, pMO vector", "T3 sequence (Q61143 1-930)": "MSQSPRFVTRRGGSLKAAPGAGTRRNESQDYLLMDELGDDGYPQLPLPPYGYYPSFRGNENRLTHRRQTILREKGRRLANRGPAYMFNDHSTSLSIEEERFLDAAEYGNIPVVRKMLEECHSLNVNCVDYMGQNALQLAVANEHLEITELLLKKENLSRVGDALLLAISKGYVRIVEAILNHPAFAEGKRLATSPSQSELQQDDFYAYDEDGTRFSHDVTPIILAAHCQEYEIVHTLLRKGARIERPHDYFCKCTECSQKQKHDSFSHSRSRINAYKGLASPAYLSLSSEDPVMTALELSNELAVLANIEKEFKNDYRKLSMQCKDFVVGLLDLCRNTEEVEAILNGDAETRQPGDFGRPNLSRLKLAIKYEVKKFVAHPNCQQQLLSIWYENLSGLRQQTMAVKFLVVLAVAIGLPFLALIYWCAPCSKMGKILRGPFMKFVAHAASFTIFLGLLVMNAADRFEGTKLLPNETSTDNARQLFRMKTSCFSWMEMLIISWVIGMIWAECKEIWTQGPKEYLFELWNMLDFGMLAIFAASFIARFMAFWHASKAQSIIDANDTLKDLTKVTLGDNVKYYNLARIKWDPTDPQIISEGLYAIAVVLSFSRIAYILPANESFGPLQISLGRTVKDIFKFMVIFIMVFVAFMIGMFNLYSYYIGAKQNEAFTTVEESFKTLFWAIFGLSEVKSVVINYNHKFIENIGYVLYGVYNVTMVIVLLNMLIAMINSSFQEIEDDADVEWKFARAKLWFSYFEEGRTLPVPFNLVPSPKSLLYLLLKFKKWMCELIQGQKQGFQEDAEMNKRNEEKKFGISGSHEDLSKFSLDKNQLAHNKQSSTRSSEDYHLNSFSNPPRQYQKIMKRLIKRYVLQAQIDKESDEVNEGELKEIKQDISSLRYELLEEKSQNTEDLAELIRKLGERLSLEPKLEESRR", "test": "whole-cell patch clamp selectivity, HEK 293 cells overexpressing mmTRPC6", "type": "cell-based", "details": "HEK293, with agonist, solutions without Ca2+, read-out: % of the current of hTRPC6 inhibited", "procedure": "as §1"}}, "data": [{"compound": "CCNC(=O)c1cnn(-c2ccc(-n3ccc(Cl)c(Cl)c3=O)cc2)c1C(F)(F)F", "note": "[Compound 22]", "values": [{"measurement": "toxicity in neuronal culture", "setting": "hippocampal neurons", "result": "lack of toxicity"}, {"measurement": "inhibition at 10 µM", "setting": "rTRPV1", "result": "< 5", "unit": "%"}, {"measurement": "inhibition at 10 µM", "setting": "hTRPA1", "result": "< 5", "unit": "%"}, {"measurement": "inhibition at 10 µM", "setting": "mmTRPC6", "result": "~39", "unit": "%"}]}]}
